The values below come from patent US9694003B2, “Formulations and methods for treating high intraocular pressure” (Bridge Pharma, Inc., priority 2015, dated 2017).

In data set [1] the test system is Escherichia coli, Pseudomonas aeruginosa, Staphylococcus aureus, Aspergillus brasiliensis, Candida albicans. Description: Preservative Challenge Test (USP 51 Antimicrobial Effectiveness Testing), all five organisms. As to conditions: ocular formulation without preservatives, concentrations useful for decreasing IOP. The format is cell-based. Here is the method: METHOD: The standardized Preservative Challenge Test (U.S. Pharmacopeia 51 Antimicrobial Effectiveness Testing) have been used for tests of self-preservation by norketotifen in concentrations to be used for patients suffering from allergic conjunctivitis and xerophthalmia. USP (51) is a standard test used to determine the antimicrobial effectiveness of test articles and ophthalmic formulations. The present tests were using 150 ml of each formulation and covered the mandatory five organisms: Escherichia coli (fermentative G−), Pseudomonas aeruginosa (non-fermentative G−), Staphylococcus aureus (G+), Aspergillus brasiliensis (mold), and Candida albicans (yeast). The number of inoculated cells was 0.5×10^5 per mL and the incubation temperature was 25° C. for all inoculations. Plating for measuring of recoveries were performed weekly over 4 weeks. The norketotifen formulations were defined as being self-preserving only if the numbers of cell colonies remained constant (fungi) and were declining (bacteria) according to the strictly standardized USP 51 protocol. Tests were performed at pH 4.0, pH 4.5, pH 5.0 and pH 6.0 and the test articles were dissolved in BSA/water (BSA=bovine serum albumin) containing at least 0.01 percent norketotifen (calculated as free base). […]
(§1) Yeast and Molds (Fungi): No increase from the initial calculated count at 14 or 28 days.

The next data set deals with Escherichia coli. Description: Preservation challenge test (USP 51), E. coli. The note with it: saline formulation, pH 5.0. The class given is cell-based. Here is the method: (§2) METHOD: The standardized Preservative Challenge Test (U.S. Pharmacopeia 51 Antimicrobial Effectiveness Testing) have been used for tests of self-preservation by norketotifen in concentrations to be used for patients suffering from allergic conjunctivitis and xerophthalmia. USP (51) is a standard test used to determine the antimicrobial effectiveness of test articles and ophthalmic formulations. The present tests were using 150 ml of each formulation and covered the mandatory five organisms: Escherichia coli (fermentative G−), Pseudomonas aeruginosa (non-fermentative G−), Staphylococcus aureus (G+), Aspergillus brasiliensis (mold), and Candida albicans (yeast). The number of inoculated cells was 0.5×10^5 per mL and the incubation temperature was 25° C. for all inoculations. Plating for measuring of recoveries were performed weekly over 4 weeks. The norketotifen formulations were defined as being self-preserving only if the numbers of cell colonies remained constant (fungi) and were declining (bacteria) according to the strictly standardized USP 51 protocol. […] All solutions used in the antimicrobial studies were devoid of added preservatives.
(§3) USP Criteria for Tested Microorganisms (Category 1)
(§4) Bacteria: Not less than a 3.0 logarithmic reduction from the initial count to the count at 14 days, and no increase from the counts at 14 days to the counts at 28 days.

The next data set relates to Pseudomonas aeruginosa. Description: Preservation challenge test (USP 51), P. aeruginosa. The format is cell-based. The note with it: saline formulation, pH 5.0. The procedure: as §2, §3, §4
A further data set has as its system Staphylococcus aureus. Description: Preservation challenge test (USP 51), S. aureus. The class given is cell-based. The note with it: saline formulation, pH 5.0. Here is the method:
as §2, §3, §4

Another data set has as its system Aspergillus brasiliensis. The data set is described as follows: Preservation challenge test (USP 51), A. brasiliensis. The class given is cell-based. As to conditions: saline formulation, pH 5.0. The procedure: as §2, §3, §1
For another data set, the system named is Candida albicans. The data set is described as follows: Preservation challenge test (USP 51), C. albicans. The format is cell-based. The note with it: saline formulation, pH 5.0. The procedure:
as §2, §3, §1

Data set [2] in a line: Solubility of norketotifen HF in non-aqueous carriers. The class given is physicochemical. The text has this:
The intraocular formulations contain a carrier, such as water which is the carrier for an aqueous solution. Non-aqueous carriers include polyethylene glycol (PEG) and/or propylene glycol (PG) can be used in ophthalmic compositions. […] Norketotifen can be dissolved in water in concentrations up to about 0.2 wt %. Exemplary non-aqueous solvents include polyethylene glycol (about 0.1% to about 90%) and propylene glycol (about 0.1% to about 90%).

Another data set has as its system rabbits. The data set is described as follows: Ocular irritation/toxicity study, repeated daily ocular doses. The format is in vivo. As to conditions: repeated daily doses for 6 weeks, highest concentration tested. Here is the method:
(§5) Fifty-two rabbits (26F+26M) were assigned to four groups and were administered repeated daily doses of norketotifen HF solutions by the ocular route, 0.00, 0.0345, 0.0690 and 0.138 wt % for 6 weeks. […] In addition to regular toxicology parameters, ophthalmic parameters and ocular irritation scores were assessed. Blood samples were collected at predetermined time intervals. Plasma sample were analyzed using a validated LCMS-MS method. Plasma pharmacokinetics was calculated.

In data set [3] the test system is intraocular pressure in the eyes of rabbits. Description: Intraocular pressure during repeated daily norketotifen eye-drops. The class given is in vivo. The note with it: 6 rabbits. The procedure:
as §5
In the previously described Ocular Irritation/Toxicity Study (Example 7), intraocular pressure was measured in the eyes of one group of rabbits (3M+3F), before, during and after repeated daily ocular treatment with norketotifen eye-drops. […] The group tested for effects on IOP consisted of 12 eyes and the dose administered was 0.14 wt % and norketotifen was administered daily for 6 weeks, followed by a two-week recovery period without norketotifen administration. Day 42 was the last day of the treatment period and Day 56 was the last day of the recovery period.

The next data set relates to trabecular mesh. The note with it: within 15 minutes of exposure; cited from earlier work.
The subject of another data set is macrophages. The note with it: cited from earlier work.
A further data set deals with cornea. The note with it: topical application to the eye, usual clinical concentration; cited from earlier work.
The test system of the next data set is eye. The note with it: cited from earlier work.

For `CN1CCC(=C2c3ccccc3CC(=O)c3sccc32)CC1.O=C(O)/C=C/C(=O)O` [KETO, RS-ketotifen hydrogen fumarate, reference compound], in data set [1], the “self-preservation test, conclusion” value is reported as “not pass the self-preservation test”. Also, the “E. coli CFU/ml” value in the data set with Escherichia coli (Day 0) is on record as 1.5E+06 CFU/ml; in the data set with Escherichia coli (Day 14), 2.5E+04 CFU/ml; with Escherichia coli (Day 28), 2.6E+06 CFU/ml. Further, the “E. coli Log Reduc” value is given as 1.78 with Escherichia coli (Day 14) and “None” in the data set with Escherichia coli (Day 28). The “P. aerugin CFU/ml” value in the data set with Pseudomonas aeruginosa (Day 0) came out at 3.1E+05 CFU/ml; in the data set with Pseudomonas aeruginosa (Day 14), 1.5E+4 CFU/ml; in the data set with Pseudomonas aeruginosa (Day 28) it was 2.3E+05 CFU/ml. The “P. aerugin Log Reduc” value in the data set with Pseudomonas aeruginosa (Day 14) is reported as 1.31; with Pseudomonas aeruginosa (Day 28) it was 0.13. Also, the “S. aureus CFU/ml” value in the data set with Staphylococcus aureus (Day 0) is listed as 2.0E+06 CFU/ml; in the data set with Staphylococcus aureus (Day 14) it was 3.3E+06 CFU/ml; in the data set on Staphylococcus aureus (Day 28), 3.6E+06 CFU/ml. In addition, the “S. aureus Log Reduc” value in the data set on Staphylococcus aureus (Day 14) and in the data set with Staphylococcus aureus (Day 28) was “None” throughout. Also, the “A. brasil CFU/ml” value is 3.6E+05 CFU/ml in the data set on Aspergillus brasiliensis (Day 0), 4.8E+05 CFU/ml in the data set on Aspergillus brasiliensis (Day 14) and 2.0E+05 CFU/ml with Aspergillus brasiliensis (Day 28). Moreover, the “A. brasil Log Reduc” value is given as “None” in the data set with Aspergillus brasiliensis (Day 14) and 0.25 in the data set on Aspergillus brasiliensis (Day 28). The “C. albic CFU/ml” value was determined as 7.9E+05 CFU/ml with Candida albicans (Day 0), 3.0E+03 CFU/ml in the data set on Candida albicans (Day 14) and 1.1E+03 CFU/ml in the data set on Candida albicans (Day 28). Moreover, the “C. albic Log Reduc” value with Candida albicans (Day 28) stood at 0.25.
For the compound `O=C(O)C=CC(=O)O.O=C1Cc2ccccc2C(=C2CCNCC2)c2ccsc21` [norketotifen HF, RS-norketotifen hydrogen fumarate], the “solubility in polyethylene glycol (PEG 300)” value in data set [2] (PEG 300) is “about 0.15 percent w/w”. Further, in data set [2] (propylene glycol), the “solubility in propylene glycol” value is given as “up to 1.0 wt %”. In addition, the “No-Observable-Adverse-Effect-Level (NOAEL)” value in the data set with rabbits came out at 0.138%. The “IOP (mm Hg; ± SD)” value is 20.4 ± 2.9 mm Hg in data set [3] (Day 1 (pretest), 12 eyes); 16.5 ± 1.7 mm Hg in data set [3] (Day 42 (treatment), 0.14 wt % eye-drops daily for 6 weeks, P = 0.0005 vs. Day 1); 20.5 ± 1.6 mm Hg in [3] (Day 56 (recovery, two weeks without dosing), P < 0.0001 vs. Day 42). The “E. coli CFU/ml” value in the data set on Escherichia coli (Day 0) is on record as 8.5E+05 CFU/ml; in the data set on Escherichia coli (Day 14), <5.0+00 CFU/ml; with Escherichia coli (Day 28) it was <5.0+00 CFU/ml. Also, the “E. coli Log Reduc” value with Escherichia coli (Day 14) and with Escherichia coli (Day 28) was >5.23 each time. In addition, the “P. aerugin CFU/ml” value in the data set with Pseudomonas aeruginosa (Day 0) is 4.7E+05 CFU/ml; in the data set with Pseudomonas aeruginosa (Day 14), <5.0+00 CFU/ml; in the data set on Pseudomonas aeruginosa (Day 28), <5.0+00 CFU/ml. The “P. aerugin Log Reduc” value with Pseudomonas aeruginosa (Day 14) is given as >4.79; in the data set on Pseudomonas aeruginosa (Day 28) it was >4.97. Moreover, the “S. aureus CFU/ml” value in the data set on Staphylococcus aureus (Day 0) is listed as 2.5E+05 CFU/ml; in the data set with Staphylococcus aureus (Day 14), <5.0+00 CFU/ml; with Staphylococcus aureus (Day 28), <5.0+00 CFU/ml. The “S. aureus Log Reduc” value with Staphylococcus aureus (Day 14) and in the data set on Staphylococcus aureus (Day 28) was >4.70 each time. The “A. brasil CFU/ml” value with Aspergillus brasiliensis (Day 0) worked out at 7.0E+05 CFU/ml; with Aspergillus brasiliensis (Day 14), 5.75E+02 CFU/ml; in the data set with Aspergillus brasiliensis (Day 28), 3.10E+02 CFU/ml. The “A. brasil Log Reduc” value with Aspergillus brasiliensis (Day 14) came out at 3.09; in the data set on Aspergillus brasiliensis (Day 28), 3.35. Moreover, the results for the “C. albic CFU/ml” value with Candida albicans (Day 0), in the data set with Candida albicans (Day 14) and with Candida albicans (Day 28) were 6.0E+05 CFU/ml, <5.0+00 CFU/ml and <5.0+00 CFU/ml, respectively. The “C. albic Log Reduc” value in the data set on Candida albicans (Day 14) and in the data set with Candida albicans (Day 28) was >5.08 each time.
Take benzalkonium chloride [BAK]: the “concentration expressing toxicity that targets the trabecular mesh” value with trabecular mesh is given as 0.0001%. The “concentration that stimulates macrophages, increases phagocytosis and releases cytokines” value in the data set with macrophages is 0.0001%. The “concentration causing corneal neurotoxicity” value in the data set with cornea was 0.01%. Moreover, in the data set with eye, the “concentration inducing toxic ocular effects” value is recorded as ≥ 0.0001%.
